Counter-ions that a name gives are not always drawn. Like-named read-outs stand apart in the source and are kept apart here.
Columns and labels:
[1] = Example 1: clinical safety of single inhaled doses in healthy adults; type: in vivo, human
Protocol: In a controlled clinical environment, 38 healthy adults received single doses of either 0.9% saline solution as placebo or up to 750 mg of ASA by inhalation (placebo n=10, ASA n=28).

[2] = system: influenza virus infection; conditions: for Time to alleviation of clinical influenza symptoms (T1), Mean: 800 mg LASAG (400 mg ASA) inhaled three times daily
[3] = in vivo

For `CC(=O)Oc1ccccc1C(=O)O` [ASA, acetylsalicylic acid], the “Serious events or severe adverse effects” value ([1]; single inhaled doses up to 750 mg ASA) was “no serious events or severe adverse effects were observed”, the “Tolerability of administered doses” value ([1]; single inhaled doses up to 750 mg ASA as LASAG solution about 200 mg/ml, AKITA Apixneb) was “overall well tolerated” and the “Effect on pulmonary function tests parameters” value ([1]; single inhaled doses up to 750 mg ASA, higher doses) was “no effect on pulmonary function tests parameters”.
In the case of `CC(=O)Oc1ccccc1C(=O)O` [LASAG, D,L-lysine acetylsalicylate glycine salt], the “Time to alleviation of clinical influenza symptoms (T1), Max.” value ([2]; CSS ≥14, per protocol set) is reported as 67.4 h, the “Time to alleviation of clinical influenza symptoms (T1), Min.” value ([2]; CSS ≥14, per protocol set) is reported as 9.8 h and the “Time to alleviation of clinical influenza symptoms (T1), Q1” value ([2]; CSS ≥14, per protocol set) is reported as 23.5 h. For the same compound, the “Time to alleviation of clinical influenza symptoms (T1), Q3” value ([2]; CSS ≥14, per protocol set) was 52.4 h, the “Time to alleviation of clinical influenza symptoms (T1), Mean” value ([2]; CSS ≥14, per protocol set) was 38.3 h and the “Time to alleviation of clinical influenza symptoms (T1), Median” value ([2]; CSS ≥14, per protocol set, 800 mg LASAG inhaled three times daily) was 27.8 h. For the same compound, the “Time to alleviation of clinical influenza symptoms (T1), Max.” value ([2]; CSS ≥17, per protocol set) was 66.9 h, the “Time to alleviation of clinical influenza symptoms (T1), Median” value ([2]; CSS ≥17, per protocol set) was 47.0 h and the “Time to alleviation of clinical influenza symptoms (T1), Min.” value ([2]; CSS ≥17, per protocol set) was 23.5 h. For the same compound, the “Time to alleviation of clinical influenza symptoms (T1), Q1” value ([2]; CSS ≥17, per protocol set) was 27.8 h, the “Time to alleviation of clinical influenza symptoms (T1), Q3” value ([2]; CSS ≥17, per protocol set) was 62.1 h and the “Time to alleviation of clinical influenza symptoms (T1), Mean” value ([2]; CSS ≥17, per protocol set) was 44.7 h. For the same compound, the “Time to alleviation of influenza symptoms T1” value ([2]; first patient group with CSS (log rank p 0.0313), placebo 51.6 h) was 38.3 h, the “Difference to placebo in time required for alleviation of clinical influenza symptoms” value ([2]; human, in vivo) was “no significant difference” and the “Recovery by baseline corrected daily activity score (DAS)” value ([2]; human, in vivo) was “better recovery than the placebo group”. For the same compound, the “Number of inhalations after which patients were alleviated” value ([2]; patients with CSS, assuming start with the morning inhalation, placebo about 9) was “about 6 inhalations”, the “Time to alleviation of influenza symptoms T1” value ([2]; second patient group with CSS (log rank p 0.0152), placebo 71.5 h) was 44.7 h and the “Number of adverse events (AE)” value ([3]; human) was 41. For the same compound, the “Number of patients affected by AE” value ([3]; human) was 23, the “Required medication due to AEs” value ([3]; human) was “About 56.1%” and the “Share of all adverse events (AE)” value ([3]; human) was 49.4%. The “Share of group patients affected by AE” value ([3]; human) was 41.1%, the “Death or other significant adverse events” value [3] was “no case of death or other significant adverse events” and the “Difference to placebo with regard to tolerability” value [3] was “no significant differences”.

Reference: patent publication US20220387455A1, “TREATMENT OF MODERATE TO SEVERE INFLUENZA” (priority 2015, published 2022)
